Here are results for 14 compounds from ChEMBL document CHEMBL5247609, “Novel nitric oxide-releasing derivatives of pyranocarbazole as antitumor agents: Design, synthesis, biological evaluation, and nitric oxide release studies” (Eur J Med Chem, 2022).

Assay [1] has as its system MDA-MB-231. The assay is described as follows: Antiproliferative activity against human MDA-MB-231 cells assessed as reduction in cell viability by measuring release of nitrite at 100 uM after 180 mins by Griess reagent analysis. Type of assay: functional. Conditions: 3 h.
For assay [2], the system named is NCI-H460. The assay is described as follows: Antiproliferative activity against human H460 cells assessed as reduction in cell viability after 96 hrs by MTT assay. Type of assay: functional, cell-based. Conditions: NCI-H460, 96 h.
In assay [3] the test system is HeLa. The assay is described as follows: Antiproliferative activity against human HeLa cells assessed as reduction in cell viability after 96 hrs by MTT assay. Format: functional, cell-based.
The test system of assay [4] is MDA-MB-231. The assay is described as follows: Antiproliferative activity against human MDA-MB-231 cells assessed as reduction in cell viability after 96 hrs by MTT assay. The conditions noted are these: MDA-MB-231, 96 h. Type of assay: functional, cell-based.
The subject of assay [5] is MX1. Put plainly: Induction of morphological changes in human MX1 cells at 5 uM measured after 24 hrs by bright field inverted microscopic analysis. Format: functional, cell-based.
Assay [6] concerns MDA-MB-231. Put plainly: Induction of morphological changes in human MDA-MB-231 cells at 5 uM measured after 24 hrs by bright field inverted microscopic analysis. Format: functional, cell-based.
Assay [7] deals with MX1. Put plainly: Induction of morphological changes in human MX1 cells assessed as decrease in cell number at 5 uM measured after 24 hrs by bright field inverted microscopic analysis. Format: functional, cell-based.
For assay [8], the system named is MDA-MB-231. The assay is described as follows: Induction of morphological changes in human MDA-MB-231 cells assessed as decrease in cell number at 5 uM measured after 24 hrs by bright field inverted microscopic analysis. Type of assay: functional, cell-based.
For assay [9], the system named is MX1. Put plainly: Induction of morphological changes in human MX1 cells assessed as decrease in cell size at 5 uM measured after 24 hrs by bright field inverted microscopic analysis. Type of assay: functional, cell-based.
Assay [10] relates to MDA-MB-231. Put plainly: Induction of morphological changes in human MDA-MB-231 cells assessed as decrease in cell size at 5 uM measured after 24 hrs by bright field inverted microscopic analysis. Format: functional, cell-based.
Assay [11] deals with MDA-MB-231. Put plainly: Antiproliferative activity against human MDA-MB-231 cells assessed as decrease in number of colony formation at 5 uM measured after 14 days by crystal violet staining based analysis. Type of assay: functional, cell-based. The conditions noted are these: time 14.0 day.
In assay [12] the test system is MX1. The assay is described as follows: Induction of apoptosis in human MX1 cells assessed as viable cells measured at 5 uM after 48 hrs by FITC-Annexin-V and propidium iodide based flow cytometric analysis (reference value: 88.4%). Format: functional. Conditions: read-out: Activity.
Assay [13] concerns MX1. Put plainly: Induction of apoptosis in human MX1 cells assessed as early apoptotic cells measured at 5 uM after 48 hrs by FITC-Annexin-V and propidium iodide based flow cytometric analysis (reference value: 6.30%). Type of assay: functional.
Assay [14] concerns MX1. Put plainly: Induction of apoptosis in human MX1 cells assessed as late apoptotic cells measured at 5 uM after 48 hrs by FITC-Annexin-V and propidium iodide based flow cytometric analysis (reference value: 5.24%). Format: functional.
The test system of assay [15] is MX1. Put plainly: Induction of apoptosis in human MX1 cells assessed as necrotic cells measured at 5 uM after 48 hrs by FITC-Annexin-V and propidium iodide based flow cytometric analysis (reference value: 0.055 %). Format: functional.
In assay [16] the test system is MDA-MB-231. The assay is described as follows: Induction of apoptosis in human MDA-MB-231 cells assessed as viable cells measured at 5 uM after 48 hrs by FITC-Annexin-V and propidium iodide based flow cytometric analysis (reference value: 94.4% ). Format: functional. Conditions: read-out: Activity.
Assay [17] relates to MDA-MB-231. Put plainly: Induction of apoptosis in human MDA-MB-231 cells assessed as early apoptotic cells measured at 5 uM after 48 hrs by FITC-Annexin-V and propidium iodide based flow cytometric analysis (reference value: 2.71%). Type of assay: functional.
For assay [18], the system named is MDA-MB-231. Put plainly: Induction of apoptosis in human MDA-MB-231 cells assessed as late apoptotic cells measured at 5 uM after 48 hrs by FITC-Annexin-V and propidium iodide based flow cytometric analysis (reference value: 2.68%). Type of assay: functional.
The subject of assay [19] is MDA-MB-231. The assay is described as follows: Induction of apoptosis in human MDA-MB-231 cells assessed as necrotic cells measured at 5 uM after 48 hrs by FITC-Annexin-V and propidium iodide based flow cytometric analysis (reference value: 0.253 %). Format: functional.

Calls of active or inactive are those of the source. No cut-off for these calls is given here.

Take `CC1(C)C=Cc2c(c(CNCCOc3no[n+]([O-])c3S(=O)(=O)c3ccccc3)cc3c2[nH]c2ccc(C(C)(C)C)cc23)O1`: in assay [1], the Nitrite release came out at 19.7 µM. Further, the IC50 in assay [2] came to 5.98 µM; in [3], 5.34 µM; in assay [4], 4.26 µM.
With `CN1CCN(Cc2cc3c([nH]c4ccc(C(C)(C)C)cc43)c3c2OC(C)(C)C=C3)CC1`, the IC50 in [2] came to 3.59 µM; in assay [3], 1.29 µM; in assay [4] it was 3.43 µM. Further, the outcome in [5], in [6], in assay [7], in assay [8], in [9] and in assay [10] was Active. Besides, the outcome in assay [11] was Active. For the same compound, the viability at 5 µM turned out to be 36% in assay [12] and 81.3% in [16]. The Activity in assay [13] was found to be 53.8%; in assay [14] it was 9.97%; in [15] it was 0.175%; in assay [17], 10.2%; in assay [18] it was 7.79%; in [19], 0.745%.
Consider `CC1(C)C=Cc2c(c(/C=C/C(=O)NCCCOc3no[n+]([O-])c3S(=O)(=O)c3ccccc3)cc3c2[nH]c2ccc(C(C)(C)C)cc23)O1`, for which, in assay [1], the Nitrite release amounted to 19.7 µM. Also, the IC50 came to 1.28 µM in assay [2], 0.23 µM in [3] and 0.18 µM in assay [4].
Turning to `NCCOc1no[n+]([O-])c1S(=O)(=O)c1ccccc1`, the figures for the IC50 in [2], in [3] and in [4] were 16.3 µM, 10.5 µM and 12.7 µM, respectively.
For the compound `CC1(C)C=Cc2c(c(/C=C/C(=O)N3CCC(COc4no[n+]([O-])c4S(=O)(=O)c4ccccc4)CC3)cc3c2[nH]c2ccc(C(C)(C)C)cc23)O1`, the Nitrite release in assay [1] worked out at 19.7 µM. The IC50 was found to be 1.36 µM in assay [2], 0.43 µM in assay [3] and 0.29 µM in assay [4].
On to `CC1(C)C=Cc2c(c(/C=C/C(=O)N3CCC(Oc4no[n+]([O-])c4S(=O)(=O)c4ccccc4)CC3)cc3c2[nH]c2ccc(C(C)(C)C)cc23)O1`, for which the IC50 stood at 2.68 µM in [2], 1.35 µM in assay [3] and 3.52 µM in [4].
Regarding `CC(=O)O[C@H]1C(=O)[C@@]2(C)[C@H]([C@H](OC(=O)c3ccccc3)[C@]3(O)C[C@H](OC(=O)[C@H](O)[C@@H](NC(=O)c4ccccc4)c4ccccc4)C(C)=C1C3(C)C)[C@]1(OC(C)=O)CO[C@@H]1C[C@@H]2O` [PACLITAXEL], the Nitrite release in [1] is 19.7 µM. Further, the values for the half-inhibitory concentration (IC50) in assay [3] and in assay [4] were 0.006 µM and 0.05 µM, respectively.
As for `CC(CNC(=O)/C=C/c1cc2c([nH]c3ccc(C(C)(C)C)cc32)c2c1OC(C)(C)C=C2)Oc1no[n+]([O-])c1S(=O)(=O)c1ccccc1` (stereo not given), the IC50 in [2] amounted to 0.99 µM; in assay [3] it was 0.21 µM; in assay [4], 0.2 µM.
As to `CC1(C)C=Cc2c(c(/C=C/C(=O)N3CCC(CCOc4no[n+]([O-])c4S(=O)(=O)c4ccccc4)CC3)cc3c2[nH]c2ccc(C(C)(C)C)cc23)O1`, the Nitrite release in [1] turned out to be 19.7 µM. In addition, the IC50 came to 3.18 µM in assay [2], 0.24 µM in [3] and 0.21 µM in [4].
On to `CC1(C)C=Cc2c(c(CNCCCOc3no[n+]([O-])c3S(=O)(=O)c3ccccc3)cc3c2[nH]c2ccc(C(C)(C)C)cc23)O1`, for which the Nitrite release in [1] worked out at 19.7 µM. Further, the IC50 in [2] was 7.49 µM; in assay [3], 7.55 µM; in assay [4], 5.85 µM.
For `CC1(C)C=Cc2c(c(CN3CCC(Oc4no[n+]([O-])c4S(=O)(=O)c4ccccc4)CC3)cc3c2[nH]c2ccc(C(C)(C)C)cc23)O1` the same measures were 19.7 µM, 1.39 µM, 1.62 µM and 3.51 µM.
Take `CC1(C)C=Cc2c(c(CN3CCC(CCOc4no[n+]([O-])c4S(=O)(=O)c4ccccc4)CC3)cc3c2[nH]c2ccc(C(C)(C)C)cc23)O1`: in [1], the Nitrite release was found to be 19.7 µM. Besides, the values for the IC50 in assay [2], in assay [3] and in assay [4] were 1.96 µM, 1.83 µM and 3.5 µM, respectively.
For `CC1(C)C=Cc2c(c(CN3CCC(COc4no[n+]([O-])c4S(=O)(=O)c4ccccc4)CC3)cc3c2[nH]c2ccc(C(C)(C)C)cc23)O1`, the IC50 was 4.49 µM in assay [2], 3.86 µM in assay [3] and 3.75 µM in [4].
As to `CC1(C)C=Cc2c(c(/C=C/C(=O)N3CCCC3COc3no[n+]([O-])c3S(=O)(=O)c3ccccc3)cc3c2[nH]c2ccc(C(C)(C)C)cc23)O1` (stereo not given), the Nitrite release in assay [1] is 19.7 µM. The IC50 in [2] is 6.04 µM; in assay [3], 0.24 µM; in assay [4] it was 0.38 µM.
